From patent US6222035A, “[1,2,4] triazolo [1,5-C] pyrimidine derivatives” (Kyowa Hakko Kogyo Co., Ltd., priority 1997, dated 2001)
Structures can show the parent of a compound that is named as a salt.

Key:
[1] = tested on: haloperidol-induced catalepsy in mice; experiment: Activity on haloperidol-induced Catalepsy; format: in vivo, mouse (male ddY); settings: 10 mg/kg oral; for Total score (catalepsy): 10 animals, maximum 50 points, control 50; for Number of Animals showing remission: catalepsy score 4 points or less in 10 cases; for Remission ratio (%): haloperidol-induced catalepsy
Protocol: Activity on haloperidol-induced Catalepsy
Parkinson's disease is a disease based on the degeneration and cell death of the nigrostriatal dopaminergic neuron. When haloperidol (dopamine D1/D2 antagonist) is administered, catalepsy is induced by the block of postsynaptic D2 receptor. This haloperidol-induced catalepsy is known as a classic model in which symptoms of Parkinson's disease are produced by drug administration [European Journal of Pharmacology, 182: 327 (1990) and U.S. Pat. No. 3,991,207].
This test was carried out using 10 animals per group of male ddY mice of 5 week age (22 to 24 g in body weight, Japan SLC). Haloperidol (manufacturedby Janssen) was suspended in 0.3% CMC and administered intraperitoneally into mice at a dose of 1.0 mg/kg. Each test compound was used by mixing it with Tween 80 and then suspending it in distilled water for injection (manufactured by Otsuka Pharmaceutical). Also, L-DOPA (manufactured by Kyowa Hakko Kogyo Co., Ltd.) and benserazide HCl (manufactured by Kyowa Hakko Kogyo Co., Ltd.) were used by suspending them in 0.3% CMC. […] All of the test compounds were administered orally in a dose of 10 mg/kg, and 100 mg/kg of L-DOPA and 25 mg/kg of benserazide were used in combination as a control drug and administered by intraperitoneal injection. The catalepsy score was evaluated by the judging criteria shown in the above-described Table 3.
The effect was judged by total catalepsy scores of 10 animals in one group (the maximum is 50 points). When the total score was 40 points or less, the activity of drugs was judged positive. The number of animals showing remission of catalepsy was expressed by the number of cases in which the catalepsy score was 4 points or less in 10 cases. The catalepsy remission ratio was expressed as the percentage of the total score in the test compound-administered group to the total score in the control group.

[2] = tested on: CGS 21680-induced catalepsy in mice; experiment: Activity on CGS 21680-induced Catalepsy; format: in vivo, mouse (male ddY); settings: 10 mg/kg oral; for Total score (catalepsy): 10 animals, maximum 50 points, control 48; for Number of Animals showing remission: catalepsy score 4 points or less in 10 cases; for inhibition in vivo at 10 mg/kg: Mus musculus, CGS 21680-induced catalepsy, read-out: Remission ratio (%)
Summary of the method: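 Male ddY mice (5 weeks, 10 per group) received CGS 21680 10 μg/20 μl intracerebroventricularly; test compounds given orally at 10 mg/kg in 0.3% Tween 80 suspension. Catalepsy scored 1 h after dosing on a 4.5 cm bar; total group score (maximum 50) compared with control; ≤4 per animal counted as remission.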

[3] = tested on: clonidine-induced aggressive behavior in mice; experiment: Activity on Clonidine-induced Aggressive Behavior; format: in vivo, mouse (male ddY); settings: 10 mg/kg po; for Number of attacks (count; average ± S.E.M.), test compound group: *: p < 0.05, 10 animals
Protocol: Activity on Clonidine-induced Aggressive Behavior
Effect of test compounds to increase aggressive behavior induced by the intraperitoneal injection of clonidine [European Journal of Pharmacology, 29: 374 (1968)] was examined.
This test was carried out using 2 animals per group of male ddY mice of 20 to 25 g in body weight (Japan SLC). Each test compound was used by mixing it with Tween 80 and then suspending it in distilled water for injection (manufactured by Otsuka Pharmaceutical), and clonidine hydrochloride (manufactured by Sigma Co.) was used by dissolving it in physiological saline (manufactured by Otsuka Pharmaceutical). […] The number of aggressive behavior of each mouse was measured for 30 minutes immediately after the administration of clonidine. The effect was judged by comparing values of the number of aggressive behavior in the control and those in test compound-administered groups (significance test: Student t-test).

adenosine A2A receptor = biological target: T1, adenosine A2A receptor (Rattus norvegicus, UniProt P30543); experiment: Adenosine receptor binding activity (adenosine A2A receptor binding test), 3H-CGS 21680 binding; settings: 2 h, read-out: A2A receptor inhibition ratio (%); for inhibition at 0.1 µM: 10^-7 M; for inhibition at 0.01 µM: 10^-8 M
T1 construct: from tissue; host or cells: rat corpus striatum, washed membrane suspension
Summary of the method: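 Rat corpus striatum membranes (5 mg wet tissue/mL in 50 mM Tris-HCl pH 7.7, 10 mM MgCl2, adenosine deaminase) incubated with 4.0 nM 3H-CGS 21680 and test compound for 120 min at 25 °C, then filtered and counted. Nonspecific binding defined with 100 μM CPA; % inhibition of specific binding calculated.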

[4] = tested on: common marmoset MPTP-treated Parkinson's disease model; experiment: Activity in a Parkinson's Disease Model (common marmoset treated with MPTP); format: in vivo
[5] = tested on: immobility time in forced swimming of mice; experiment: Forced Swimming Method (measurement of immobility time); format: in vivo, mouse (male ddY); settings: 10 mg/kg oral, Steel-test vs solvent control
Protocol: Forced Swimming Method (measurement of immobility time)
Ten animals per group of ddY male mice (21 to 26 g in body weight, Japan SLC) were used as the experimental animal. During the preliminary feeding period, they were allowed to have feed and water freely in an animal room of a room temperature of 23±1° C. and a humidity of 55±5%. […] The drugs to be tested were suspended in a 0.3% Tween 80 solution and orally administered one hour before the test. In the negative control group, 10 ml/kg of the 0.3% Tween 80 solution alone was orally administered. Measurement of immobility time was carried out in accordance with the method of Porsolt [Arch. int Pharmacodyn., 229: 327-336 (1977)]. That is, a cylindrical transparent acrylic water tank (10 cm in diameter and 25 cm in height) was filled with 9 cm in depth of water having a temperature of 23±1° C., and mice were forced to swim for 6 minutes. When mice are put into water, they immediately start to swim trying to escape from the tank, but the motion gradually decreases 1 to 2 minutes thereafter. […] In order to reduce effects of daily rhythm, the test was carried out by using 5 of the 10 animals per group in the morning, and the remaining 5 animals in the afternoon. Further, measurement of immobility time was carried out by observing 2 animals at the same time and by not telling the observers distinctions about the solvent-administered group and doses of administered test drugs. Statistical analysis of the results was carried out by a multiple comparison test of the solvent-administered control group and each of the test drug-administered groups by Steel-test.

T1 sequence (P30543 whole entry): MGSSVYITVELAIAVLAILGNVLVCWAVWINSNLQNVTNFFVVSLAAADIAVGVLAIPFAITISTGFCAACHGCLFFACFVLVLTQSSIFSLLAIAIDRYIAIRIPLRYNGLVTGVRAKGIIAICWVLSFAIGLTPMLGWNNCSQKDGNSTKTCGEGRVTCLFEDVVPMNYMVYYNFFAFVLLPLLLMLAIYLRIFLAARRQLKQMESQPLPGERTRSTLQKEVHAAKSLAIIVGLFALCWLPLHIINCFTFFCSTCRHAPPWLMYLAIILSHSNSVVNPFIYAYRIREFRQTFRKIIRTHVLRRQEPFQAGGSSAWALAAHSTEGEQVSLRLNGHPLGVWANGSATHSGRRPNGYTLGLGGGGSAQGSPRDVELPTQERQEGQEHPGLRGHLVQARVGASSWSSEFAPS

| Compound | inhibition at 0.1 µM (adenosine A2A receptor) [%] | inhibition at 0.01 µM (adenosine A2A receptor) [%] | Total score (catalepsy) [1] | Number of Animals showing remission [1] | Remission ratio (%) [1] [%] | Total score (catalepsy) [2] | Number of Animals showing remission [2] | inhibition in vivo at 10 mg/kg [2] [%] | Number of attacks in test compound group/number of attacks in control group [3] | Number of attacks (count; average ± S.E.M.), test compound group [3] [count] | Total spontaneous motor count ([4]; FIG. 2, common marmoset treated with MPTP) | Efficacy in the common marmoset MPTP-treated Parkinson's disease model ([4]; total Parkinson's disease symptom score and locomotor count vs vehicle) | Immobility time-shortening activity [5] |
| --- | --- | --- | --- | --- | --- | --- | --- | --- | --- | --- | --- | --- | --- |
| COc1ccc(Oc2cc3nc(-c4ccco4)nn3c(N)n2)cc1OC [Compound 31, 5-Amino-7-(3,4-dimethoxyphenoxy)-2-(2-furyl)[1,2,4]triazolo[1,5-c]pyrimidine] |  |  | 15 | 10 | 70 | 28 | 9 | 42 | 9.1 | 38.1 ± 13.06 |  |  |  |
| Nc1nc(N2CCOCC2)cc2nc(-c3ccco3)nn12 [Compound 39, 5-Amino-2-(2-furyl)-7-morpholino[1,2,4]triazolo[1.5-c]pyrimidine] |  |  |  |  |  | 20 | 9 | 56 | 8.1 | 9.70 ± 3.42 |  |  |  |
| Nc1nc(N2CCN(Cc3ccccc3)CC2)cc2nc(-c3ccco3)nn12 [Compound 42, 5-Amino-7-(4-benzylpiperazinyl)2-(2-furyl)[1,2,4]triazolo[1,5-c]pyrimidine] | 82 | 43 | 1 | 10 | 98 | 12 | 9 | 72 |  |  |  |  |  |
| Nc1nc(N2CCN(CCc3ccccc3)CC2)cc2nc(-c3ccco3)nn12 [Compound 46, 5-Amino-2-(2-furyl)-7-[4-(2-phenylethyl)piperazinyl][1,2,4]triazolo[1,5-c]pyrimidine] | 79 | 35 | 13 | 10 | 74 | 9 | 10 | 78 |  |  |  |  |  |
| CCOC(=O)c1cnc(N)n2nc(-c3ccco3)nc12 [Compound 55, 5-Amino-8-ethoxycarbonyl-2-(2-furyl)[1,2,4]triazolo[1,5-c]pyrimidine] |  |  | 35 | 5 | 30 | 29 | 9 | 36 |  |  |  |  |  |
| Nc1nc(N2CCN(CCCc3ccccc3)CC2)cc2nc(-c3ccco3)nn12 [Compound 63, 5-Amino-2-(2-furyl)-7-[4-(3-phenylpropyl)piperazinyl][1,2,4]triazolor[1,5-c]pyrimidine] | 82 | 31 |  |  |  | 7 | 10 | 84 |  |  | increase | effective |  |
| Nc1nc(N2CCN(C/C=C/c3ccccc3)CC2)cc2nc(-c3ccco3)nn12 [Compound 88, 5-Amino-7-(4-trans-cinnamylpiperazinyl)-2-(2-furyl)[1,2,4]triazolo[1,5-c]pyrimidine] | 57 |  |  |  |  | 0 | 10 | 98 |  |  |  |  | Significant immobility time-shortening activity was observed |
| Nc1nc(N2CCN(CC#Cc3ccccc3)CC2)cc2nc(-c3ccco3)nn12 [Compound 89, 5-Amino-2-(2-furyl)-7-(4-(3-phenylpropargyl)piperazinyl)[1,2,4]triazolo[1,5-c]pyrimidine hydrochloride] | 52 |  |  |  |  | 15 | 10 | 68 |  |  |  |  | Significant immobility time-shortening activity was observed |

The next lines start with results.

| inhibition at 0.1 µM (adenosine A2A receptor) [%] | inhibition at 0.01 µM (adenosine A2A receptor) [%] | Compound | Total score (catalepsy) [1] | Number of Animals showing remission [1] | Remission ratio (%) [1] [%] | Total score (catalepsy) [2] | Number of Animals showing remission [2] | inhibition in vivo at 10 mg/kg [2] [%] | Number of attacks in test compound group/number of attacks in control group [3] | Number of attacks (count; average ± S.E.M.), test compound group [3] [count] | Total spontaneous motor count ([4]; FIG. 2, common marmoset treated with MPTP) | Efficacy in the common marmoset MPTP-treated Parkinson's disease model ([4]; total Parkinson's disease symptom score and locomotor count vs vehicle) | Immobility time-shortening activity [5] |
| --- | --- | --- | --- | --- | --- | --- | --- | --- | --- | --- | --- | --- | --- |
| 89 | 71 | COc1cccc(OC)c1Oc1cc2nc(-c3ccco3)nn2c(N)n1 [Compound 32, 5-Anino-7-(2,6-dimethoxyphenoxy)-2-(2-furyl)[1,2,4]triazolo[1,5-c]pyrimidine] | 37 | 5 | 26 | 21 | 9 | 54 |  |  |  |  |  |
| 50 | 11 | CN1CCN(c2cc3nc(-c4ccco4)nn3c(N)n2)CC1 [Compound 40, 5-Amino-2-(2-furyl)-7-(4-methylpiperazinyl)[1,2,4]triazolo[1,5-c]pyrimidine] | 18 | 7 | 64 | 20 | 10 | 56 | 7.6 | 22.00 ± 6.44 |  |  |  |
| 103 |  | CC(C)NC(=O)c1cnc(N)n2nc(-c3ccco3)nc12 [Compound 165, 5-Amino-2-(2-furyl)-8-isopropylcarbamoyl[1,2,4]triazolo[1,5-c]pyrimidine] |  |  |  | 13 | 9 | 74 |  |  |  |  | Significant immobility time-shortening activity was observed |
| 90 |  | CNC(=O)c1cnc(N)n2nc(-c3ccco3)nc12 [Compound 167, 5-Amino-2-(2-furyl)-8-methylcarbamoyl[1,2,4]triazolo[1,5-c]pyrimidine] |  |  |  | 9 | 10 | 82 |  |  |  |  | Significant immobility time-shortening activity was observed |
